# Laboratory results: PubChem BioAssay (NCI)
#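 Each compound was tested at five concentrations against cells in 96-well plates for 48 hours. TGI is the concentration that stops growth completely.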
# Key:
# Assay in all cases: inhibition of tumour cell growth, NCI panel, 48 h
# MALME-3M melanoma = tested on: MALME-3M melanoma
# RPMI-8226 leukemia = tested on: RPMI-8226 leukemia
# SK-MEL-28 melanoma = tested on: SK-MEL-28 melanoma
# HS 578T breast = tested on: HS 578T breast
# SN12C renal = tested on: SN12C renal
# T-47D breast = tested on: T-47D breast
# 786-0 renal = tested on: 786-0 renal
# SK-OV-3 ovarian = tested on: SK-OV-3 ovarian
# IGROV1 ovarian = tested on: IGROV1 ovarian
# A498 renal = tested on: A498 renal
# OVCAR-4 ovarian = tested on: OVCAR-4 ovarian
# OVCAR-8 ovarian = tested on: OVCAR-8 ovarian
# MOLT-4 leukemia = tested on: MOLT-4 leukemia
# MDA-N = tested on: MDA-N
# OVCAR-5 ovarian = tested on: OVCAR-5 ovarian
# HCC-2998 colon = tested on: HCC-2998 colon
# MCF7 breast = tested on: MCF7 breast
# NCI-H23 lung = tested on: NCI-H23 lung
# PC-3 prostate = tested on: PC-3 prostate
# MDA-MB-231 breast = tested on: MDA-MB-231 breast
# M14 melanoma = tested on: M14 melanoma
# LOX IMVI melanoma = tested on: LOX IMVI melanoma
# K-562 leukemia = tested on: K-562 leukemia
# U251 CNS = tested on: U251 CNS
# HOP-62 NSCLC = tested on: HOP-62 NSCLC
# DU-145 prostate = tested on: DU-145 prostate
# SNB-75 CNS = tested on: SNB-75 CNS
# SF-268 CNS = tested on: SF-268 CNS
# BT-549 breast = tested on: BT-549 breast
# SR leukemia = tested on: SR leukemia
# HCT-116 colon = tested on: HCT-116 colon
# NCI/ADR-RES ovarian = tested on: NCI/ADR-RES ovarian
# NCI-H522 lung = tested on: NCI-H522 lung
# ACHN renal = tested on: ACHN renal
# NCI-H460 lung = tested on: NCI-H460 lung
# MDA-MB-435 = tested on: MDA-MB-435
# HL-60(TB) leukemia = tested on: HL-60(TB) leukemia
# RXF 393 renal = tested on: RXF 393 renal
# UACC-257 melanoma = tested on: UACC-257 melanoma
# SNB-19 CNS = tested on: SNB-19 CNS
# OVCAR-3 ovarian = tested on: OVCAR-3 ovarian
# KM12 colon = tested on: KM12 colon
# UACC-62 melanoma = tested on: UACC-62 melanoma
# CCRF-CEM leukemia = tested on: CCRF-CEM leukemia
# TK-10 renal = tested on: TK-10 renal
# HCT-15 colon = tested on: HCT-15 colon
# SF-295 CNS = tested on: SF-295 CNS
# COLO 205 colon = tested on: COLO 205 colon
# NCI-H226 lung = tested on: NCI-H226 lung
# SK-MEL-2 melanoma = tested on: SK-MEL-2 melanoma
# SF-539 CNS = tested on: SF-539 CNS
# SW-620 colon = tested on: SW-620 colon
# UO-31 renal = tested on: UO-31 renal
# HT29 colon = tested on: HT29 colon
# EKVX NSCLC = tested on: EKVX NSCLC
compound,measurement,setting,value
O=C(NNC(=S)NCc1ccccc1)C12CC3CC(CC(C3)C1)C2,TGI,MALME-3M melanoma,> 100 µM
same,TGI,RPMI-8226 leukemia,> 100 µM
same,TGI,SK-MEL-28 melanoma,> 100 µM
same,TGI,HS 578T breast,> 100 µM
same,TGI,SN12C renal,> 100 µM
same,TGI,T-47D breast,> 100 µM
same,TGI,786-0 renal,> 100 µM
same,TGI,SK-OV-3 ovarian,> 100 µM
same,TGI,IGROV1 ovarian,> 100 µM
same,TGI,A498 renal,> 100 µM
same,TGI,OVCAR-4 ovarian,> 100 µM
same,TGI,OVCAR-8 ovarian,> 100 µM
same,TGI,MOLT-4 leukemia,> 100 µM
same,TGI,MDA-N,> 100 µM
same,TGI,OVCAR-5 ovarian,> 100 µM
same,TGI,HCC-2998 colon,> 100 µM
same,TGI,MCF7 breast,> 100 µM
same,TGI,NCI-H23 lung,> 100 µM
same,TGI,PC-3 prostate,> 100 µM
same,TGI,MDA-MB-231 breast,> 100 µM
same,TGI,M14 melanoma,> 100 µM
same,TGI,LOX IMVI melanoma,> 100 µM
same,TGI,K-562 leukemia,> 100 µM
same,TGI,U251 CNS,> 100 µM
same,TGI,HOP-62 NSCLC,> 100 µM
same,TGI,DU-145 prostate,> 100 µM
same,TGI,SNB-75 CNS,> 100 µM
same,TGI,SF-268 CNS,> 100 µM
same,TGI,BT-549 breast,> 100 µM
same,TGI,SR leukemia,> 100 µM
same,TGI,HCT-116 colon,> 100 µM
same,TGI,NCI/ADR-RES ovarian,> 100 µM
same,TGI,NCI-H522 lung,> 100 µM
same,TGI,ACHN renal,> 100 µM
same,TGI,NCI-H460 lung,> 100 µM
same,TGI,MDA-MB-435,> 100 µM
same,TGI,HL-60(TB) leukemia,51.7 µM
same,TGI,RXF 393 renal,> 100 µM
same,TGI,UACC-257 melanoma,> 100 µM
same,TGI,SNB-19 CNS,> 100 µM
same,TGI,OVCAR-3 ovarian,> 100 µM
same,TGI,KM12 colon,> 100 µM
same,TGI,UACC-62 melanoma,> 100 µM
same,TGI,CCRF-CEM leukemia,> 100 µM
same,TGI,TK-10 renal,> 100 µM
same,TGI,HCT-15 colon,> 100 µM
same,TGI,SF-295 CNS,> 100 µM
same,TGI,COLO 205 colon,44.1 µM
same,TGI,NCI-H226 lung,> 100 µM
same,TGI,SK-MEL-2 melanoma,> 100 µM
same,TGI,SF-539 CNS,> 100 µM
same,TGI,SW-620 colon,> 100 µM
same,TGI,UO-31 renal,> 100 µM
same,TGI,HT29 colon,> 100 µM
CCOC(=O)NC(Nc1ccc(Cl)cn1)(C(F)(F)F)C(F)(F)F,TGI,MALME-3M melanoma,> 100 µM
same,TGI,RPMI-8226 leukemia,> 100 µM
same,TGI,SK-MEL-28 melanoma,> 100 µM
same,TGI,HS 578T breast,> 100 µM
same,TGI,T-47D breast,> 100 µM
same,TGI,SK-OV-3 ovarian,> 100 µM
same,TGI,A498 renal,> 100 µM
same,TGI,MOLT-4 leukemia,> 100 µM
same,TGI,MDA-N,> 100 µM
same,TGI,OVCAR-5 ovarian,> 100 µM
same,TGI,HCC-2998 colon,> 100 µM
same,TGI,MCF7 breast,> 100 µM
same,TGI,NCI-H23 lung,> 100 µM
same,TGI,MDA-MB-231 breast,> 100 µM
same,TGI,M14 melanoma,> 100 µM
same,TGI,LOX IMVI melanoma,> 100 µM
same,TGI,K-562 leukemia,> 100 µM
same,TGI,U251 CNS,> 100 µM
same,TGI,HOP-62 NSCLC,> 100 µM
same,TGI,DU-145 prostate,> 100 µM
same,TGI,SNB-75 CNS,> 100 µM
same,TGI,SF-268 CNS,> 100 µM
same,TGI,BT-549 breast,> 100 µM
same,TGI,SR leukemia,> 100 µM
same,TGI,HCT-116 colon,> 100 µM
same,TGI,NCI-H522 lung,> 100 µM
same,TGI,ACHN renal,> 100 µM
same,TGI,NCI-H460 lung,> 100 µM
same,TGI,MDA-MB-435,> 100 µM
same,TGI,HL-60(TB) leukemia,> 100 µM
same,TGI,RXF 393 renal,> 100 µM
same,TGI,UACC-257 melanoma,> 100 µM
same,TGI,SNB-19 CNS,> 100 µM
same,TGI,OVCAR-3 ovarian,> 100 µM
same,TGI,EKVX NSCLC,> 100 µM
same,TGI,KM12 colon,> 100 µM
same,TGI,UACC-62 melanoma,> 100 µM
same,TGI,CCRF-CEM leukemia,> 100 µM
same,TGI,TK-10 renal,> 100 µM
same,TGI,HCT-15 colon,> 100 µM
same,TGI,NCI-H226 lung,> 100 µM
same,TGI,SK-MEL-2 melanoma,> 100 µM
same,TGI,SF-539 CNS,> 100 µM
same,TGI,UO-31 renal,> 100 µM
same,TGI,HT29 colon,> 100 µM
